Laboratory results reported in US20230149326A1, “PHARMACEUTICAL COMPOSITION FOR PREVENTING OR TREATING MUSCULAR WEAKNESS-RELATED DISEASES COMPRISING ALVERINE, 4-HYDROXY ALVERINE, DERIVATIVE THEREOF, OR PHARMACEUTICALLY ACCEPTABLE SALT THEREOF” (AVENTI INC., priority 2020, published 2023).
Structures can show the parent of a compound that is named as a salt.

Experiments:
C57BL/6 male mice = experiment: Grip strength measurement, normal mouse; assay type: in vivo; conditions: oral, 4 weeks, 17, 50 or 150 mg/kg/day; compared with normal group
Protocol: In order to confirm the muscle strength enhancement effect of alverine citrate, after administering alverine citrate to a mouse, the mouse was tested for motor functions such as grip strength, running, balance coordination, and the like. After motor function tests, muscle weight was measured. In particular, each of 10 week-old C57BL/6 male mice was dosed orally with 200 μL of alverine citrate for 4 weeks, at a daily dose of 17 mg/kg/day (AC-L), 50 mg/kg/day (AC-M) or 150 mg/kg/day (AC-H). This group of mice was set as the experimental group (FIG. 3). The 10 week-old C57BL/6 male mice were purchased from Daehan BioLink. Grip strength was measured using a grip strength meter for mice (Bioseb, USA). In particular, the mice were placed on a metal grid connected to an instrument panel through which grip strength can be monitored, and while pulling the mice back by tail, the grip strength by which the mice grabbed the metal grid was measured. Here, 5 consecutive, repeated measurements were recorded and an average value of the 5 measurements was calculated.

sarcopenia-induced mice [1] = experiment: Running ability test, sarcopenia-induced mouse; assay type: in vivo; conditions: hindlimb-immobilized mice; oral 17, 50, 150 mg/kg/day
Protocol: Running ability was measured using a treadmill designed specific for this experiment. First, aversive stimuli were provided by letting electric stimuli flow at the starting point. Before the measurement, the mice were acclimatized at 8 m/min for 10 minutes. The running time was recorded by allowing mice in each group to run in separate lanes until exhaustion. Exhaustion was defined such that when the mouse stays outside the lanes for 10 seconds or more without running, the mouse was determined to be exhausted and the time was recorded. It was not possible to repeat this experiment on the same mouse. The mouse was placed on the treadmill and the test was started at 8 rpm, and the speed was accelerated by 2 rpm every 10 minutes to a maximum speed of 20 rpm. The slope of the lane started from a zero-degree incline and then was elevated to a five-degree incline after 30 min from the start. In order to confirm a muscle strength enhancement effect of alverine citrate, sarcopenia-induced mice were administered with alverine citrate and tested for running ability. After the treadmill running test, muscle weight was measured. In particular, the hindlimb of 10 week-old C57BL/6 male mice was immobilized using a surgical stapler (Autosuture Royal 35W stapler). […] After that, running ability was measured. […] Running ability was measured by the same method as in Example 2.2.

sarcopenia-induced mice [2] = experiment: Muscle weight measurement, sarcopenia-induced mouse; assay type: in vivo; conditions: hindlimb-immobilized mice; oral 17, 50, 150 mg/kg/day
Protocol: In order to confirm a muscle strength enhancement effect of alverine citrate, sarcopenia-induced mice were administered with alverine citrate and tested for running ability. After the treadmill running test, muscle weight was measured. In particular, the hindlimb of 10 week-old C57BL/6 male mice was immobilized using a surgical stapler (Autosuture Royal 35W stapler). The staples were removed after 5 days and the mice were allowed to remobilize for 3 days. After that, running ability was measured. The mice were dosed orally with 200 μL of alverine citrate per mice at a dose of 17 mg/kg/day (AC-L), 50 mg/kg/day (AC-M) or 150 mg/kg/day (AC-H), and these mice were set as the experimental group. Untreated sarcopenia-induced mice were set as the control group (FIG. 8). The 10 week-old C57BL/6 male mice were purchased from Daehan BioLink. For muscle weight measurement, the GA and TA muscles in the hindlimb of the mice in each group were removed and weighed.

C2C12 cells = experiment: Myotube atrophy induced by C26 cancer cell conditioned medium (cachexia model); assay type: cell-based, mouse; conditions: 1 μM; differentiation media with 33% CM, 3 days
Protocol: In order to confirm a cachexia treatment effect of alverine citrate and 4-hydroxy alverine, an experiment mimicking a tumor-growth environment by treatment of a cancer cell conditioned medium (CM) was conducted as an ex vivo approach. First, cancer cell CM was prepared using a C26 cancer cell line. Here, as cancel cell growth media (GM), RPMI1640 media supplemented with 10% fetal bovine serum was used. The C26 cancer cell line was cultured using a 100 mm cell culture plate and the cancer cell GM. Here, the media were removed when cell confluency reached 90%. Then, after washing with phosphate buffer (1× buffer), the prepared differentiation media were treated following the same process as in Example 1. After 24 hours, a C26 cancer cell line CM was obtained and filtered using bottle top filters (Thermo, PES, 1 L) before use.
C2C12 cells were dispensed in a 6-well plate treated with the GM of Example 1.1 at a concentration of 5×10^5 cells per plate and after 24 hours, were replaced with DMEM media supplemented with 5% HS and induced for differentiation. […] Here, by treating the experimental groups with 1 μM alverine citrate (AC) and 4-hydroxy alverine (4HA), the effect of suppressing myotube atrophy was evaluated. […] Following the same method as in Example 1.2, by florescent staining using antibodies against MyHC, the expression amount of MyHC was measured.

**Q.** For `CCN(CCCc1ccccc1)CCCc1ccccc1` [alverine citrate], which grip strength (C57BL/6 male mice) is on record?
**A.** higher than that of the mouse in the normal group

**Q.** What about the “running time, dependence on dose” value (sarcopenia-induced mice [1]) of the same compound?
**A.** increased proportionally with the dose concentration

**Q.** What about the “GA and TA muscle weights, dependence on dose” value (sarcopenia-induced mice [2]) of the same compound?
**A.** also increased

**Q.** And the myotube atrophy (C2C12 cells)?
**A.** myotube atrophy was suppressed
